Test results from US4120955A, “Method for production of kanamycin C and its derivatives” (Zaidan Hojin Biseibutsu Kagaku Kenkyu Kai, priority 1976, dated 1978).
Converted amounts (≈) assume the structure as drawn. “Also recorded” adds a separate entry of the source. Read-outs that look alike come from different tables or passages of the source.

Tests used:
[1] = system: resistant bacteria which produce 3'-phosphotransferases; conditions: known deoxykanamycin B derivatives; cited from earlier work
[2] = system: aminoglycoside 6'-acetyltransferases; conditions: known kanamycins; cited from earlier work
Escherichia coli K-12 = assay: Minimum inhibitory concentration, serial dilution method; format: cell-based
Protocol: (§1) The minimum inhibitory concentrations (mcg/ml) of kanamycin C, 3'-deoxykanamycin C and 3',4'-dideoxykanamycin C against various microorganisms were determened according to serial dilution method using nutrient agar medium at 37° C., the estimation being effected after 18 hours incubation.

[3] = system: Pseudomonas aeruginosa GN 315; assay: as above; format: cell-based; conditions: GN315, 18 h, read-out: Minimum Inhibitory Concentration
Protocol: as §1

99 = assay: as above; format: cell-based; conditions: 18 h, read-out: Minimum Inhibitory Concentration
Protocol: as §1

[4] = system: Escherichia coli LA 290 R56; assay: as above; format: cell-based; conditions: LA290R56, 18 h, read-out: Minimum Inhibitory Concentration
Protocol: as §1

[5] = system: Escherichia coli K-12 ML 1630; assay: as above; format: cell-based; conditions: K12ML1630, nutrient agar, 37° C., 18 hours, E. coli K-12 ML 1630
Protocol: as §1

[6] = system: Mycobacterium smegmatis ATCC 607; assay: as above; format: cell-based; conditions: Mycolicibacterium smegmatis, read-out: Minimum Inhibitory Concentration
Protocol: as §1

[7] = system: Pseudomonas aeruginosa A3; assay: as above; format: cell-based; conditions: nutrient agar, 37° C., 18 hours, P. aeruginosa A3
Protocol: as §1

[8] = system: Escherichia coli JR 66/W677; assay: as above; format: cell-based
Protocol: as §1

[9] = system: Escherichia coli LA 290 R64; assay: as above; format: cell-based; conditions: LA290R64, 18 h, read-out: Minimum Inhibitory Concentration
Protocol: as §1

Escherichia coli NIHJ = assay: as above; format: cell-based; conditions: 18 h, read-out: Minimum Inhibitory Concentration
Protocol: as §1

[10] = system: Staphylococcus aureus FDA 209P; assay: as above; format: cell-based; conditions: FDA209P, read-out: Minimum Inhibitory Concentration
Protocol: as §1

[11] = system: Klebsiella pneumoniae 22 No. 3038; assay: as above; format: cell-based
Protocol: as §1

[12] = system: Escherichia coli LA 290 R55; assay: as above; format: cell-based; conditions: LA290R55, 18 h, read-out: Minimum Inhibitory Concentration
Protocol: as §1

[13] = system: Escherichia coli K-12 ML 1410; assay: as above; format: cell-based; conditions: K12ML1410, nutrient agar, 37° C., 18 hours, E. coli K-12 ML 1410
Protocol: as §1

Escherichia coli W 677 = assay: as above; format: cell-based
Protocol: as §1

[14] = system: Escherichia coli K-12 ML 1629; assay: as above; format: cell-based; conditions: K12ML1629, 18 h, read-out: Minimum Inhibitory Concentration
Protocol: as §1

[15] = system: Pseudomonas aeruginosa TI-13; assay: as above; format: cell-based; conditions: TI13, 18 h, read-out: Minimum Inhibitory Concentration
Protocol: as §1

[16] = system: Escherichia coli K-12 ML 1410 R81; assay: as above; format: cell-based; conditions: 18 h, read-out: Minimum Inhibitory Concentration
Protocol: as §1

[17] = system: Klebsiella pneumoniae PCI 602; assay: as above; format: cell-based
Protocol: as §1

[18] = system: Pseudomonas aeruginosa No. 12; assay: as above; format: cell-based; conditions: NO.12, 18 h, read-out: Minimum Inhibitory Concentration
Protocol: as §1

in vivo = conditions: mouse, iv
[19] = system: resistant strains which produce 6'-acetyltransferases, for example Pseudomonas aeruginosa GN315; conditions: known deoxykanamycin B derivatives; cited from earlier work
Escherichia coli K-12 R5 = assay: Minimum inhibitory concentration, serial dilution method; format: cell-based; conditions: K12R5, 18 h, read-out: Minimum Inhibitory Concentration
Protocol: as §1

[20] = system: Pseudomonas aeruginosa H 11; assay: as above; format: cell-based; conditions: H11, 18 h, read-out: Minimum Inhibitory Concentration
Protocol: as §1

[21] = system: aminoglycoside 6'-acetyltransferases; assay: Inactivation by aminoglycoside 6'-acetyltransferases; format: biochemical

| Compound | inactivation (acetylation of the 6'-amino group) by 6'-acetyltransferases [2] | MIC [3] [µg/mL] | MIC 99 [µg/mL] | MIC [4] [µg/mL] | MIC [5] [µg/mL] | MIC [7] [µg/mL] | MIC [9] [µg/mL] | MIC (Escherichia coli NIHJ) [µg/mL] | MIC [12] [µg/mL] | MIC [13] [µg/mL] | MIC [14] [µg/mL] | MIC [15] [µg/mL] | MIC [16] [µg/mL] | MIC [18] [µg/mL] | other results |
| --- | --- | --- | --- | --- | --- | --- | --- | --- | --- | --- | --- | --- | --- | --- | --- |
| NCC1OC(OC2C(N)CC(N)C(OC3OC(CO)C(O)C(N)C3O)C2O)C(N)CC1O (stereo not shown) [DKMB, 3'-deoxykanamycin B, reference compound] | can be inactivated; also recorded: acetylate the 6'-amino group | 100 (≈ 214 µM) | 1.56 (≈ 3.34 µM) | 3.13 (≈ 6.69 µM) | 1.56 (≈ 3.34 µM) | 1.56 (≈ 3.34 µM) | 3.13 (≈ 6.69 µM) | 0.78 (≈ 1.67 µM) | 25 (≈ 53.5 µM) | 1.56 (≈ 3.34 µM) | 1.56 (≈ 3.34 µM) | 0.78 (≈ 1.67 µM) | 1.56 (≈ 3.34 µM) | 0.78 (≈ 1.67 µM) | activity against resistant bacteria producing aminoglycoside 3'-phosphotransferases [1]: active; MIC (Escherichia coli K-12; K12, nutrient agar, 37° C., 18 hours, E. coli K-12, read-out: Minimum Inhibitory Concentration): 0.39 µg/mL (≈ 0.834 µM); MIC ([6]; ATCC607, nutrient agar, 37° C., 18 hours, M. smegmatis ATCC 607): 0.39 µg/mL (≈ 0.834 µM); MIC ([8]; JR66/W677, nutrient agar, 37° C., 18 hours, E. coli JR 66/W677, read-out: Minimum Inhibitory Concentration): 50 µg/mL (≈ 107 µM); MIC ([10]; nutrient agar, 37° C., 18 hours, S. aureus FDA 209P): < 0.2 µg/mL; MIC ([11]; nutrient agar, 37° C., 18 hours, K. pneumoniae 22 No. 3038, read-out: Minimum Inhibitory Concentration): 50 µg/mL (≈ 107 µM); MIC (Escherichia coli W 677; W677, nutrient agar, 37° C., 18 hours, E. coli W 677, read-out: Minimum Inhibitory Concentration): 0.39 µg/mL (≈ 0.834 µM); MIC ([17]; PCI602, nutrient agar, 37° C., 18 hours, K. pneumoniae PCI 602, read-out: Minimum Inhibitory Concentration): 0.39 µg/mL (≈ 0.834 µM); LD50 (in vivo): 159 mg/kg; growth inhibition of resistant bacteria producing 6'-acetyltransferases [19]: not able to inhibit the growth |
| NC1CC(N)C(OC2OC(CO)C(O)C(N)C2O)C(O)C1OC1OC(CO)C(O)C(O)C1N (stereo not shown) [Kanamycin C, kanamycin C] | – | > 100 | > 100 | 25 (≈ 51.6 µM) | > 100 | > 100 | 25 (≈ 51.6 µM) | 3.13 (≈ 6.46 µM) | > 100 | 6.25 (≈ 12.9 µM) | > 100 | > 100 | > 100 | 100 (≈ 206 µM) | MIC (Escherichia coli K-12; K12, 18 h, read-out: Minimum Inhibitory Concentration): 3.13 µg/mL (≈ 6.46 µM); MIC ([6]; ATCC607, 18 h): 12.5 µg/mL (≈ 25.8 µM); MIC (Escherichia coli K-12 R5): 3.13 µg/mL (≈ 6.46 µM); MIC ([8]; JR66/W677, 18 h, read-out: Minimum Inhibitory Concentration): > 100 µg/mL; MIC ([10]; 18 h): 1.56 µg/mL (≈ 3.22 µM); MIC ([11]; 22NO.3038, 18 h, read-out: Minimum Inhibitory Concentration): > 100 µg/mL; MIC (Escherichia coli W 677; W677, 18 h, read-out: Minimum Inhibitory Concentration): 3.13 µg/mL (≈ 6.46 µM); MIC ([17]; PCI602, 18 h, read-out: Minimum Inhibitory Concentration): 3.13 µg/mL (≈ 6.46 µM); MIC [20]: > 100 µg/mL; inactivation by 6'-acetyltransferases [21]: inherently cannot be inactivated |
| NCC1OC(OC2C(N)CC(N)C(OC3OC(CO)C(O)C(N)C3O)C2O)C(O)C(O)C1O (stereo not shown) [kanamycin A] | acetylate the 6'-amino group | – | – | – | – | – | – | – | – | – | – | – | – | – | – |
| NC[C@H]1O[C@H](O[C@H]2[C@H](O)[C@@H](O[C@H]3O[C@H](CO)[C@@H](O)[C@H](N)[C@H]3O)[C@H](N)C[C@@H]2N)[C@H](N)[C@@H](O)[C@@H]1O [kanamycin B] | acetylate the 6'-amino group | – | – | – | – | – | – | – | – | – | – | – | – | – | – |
